What was measured:
[1] = molecular target: T1, recombinant human ALK5 (TGF-βR1) protein (Homo sapiens, UniProt P36897); assay: Biochemical ALK5 (TGF-βR1) assay to measure pKi (LANCE Ultra ULight kinase assay); settings: apparent pKi from pIC50 by Cheng-Prusoff, read-out: ALK5 pKi (converted)
T1 construct: purchased Life Technologies PR9075A
T1 sequence (P36897 34-503): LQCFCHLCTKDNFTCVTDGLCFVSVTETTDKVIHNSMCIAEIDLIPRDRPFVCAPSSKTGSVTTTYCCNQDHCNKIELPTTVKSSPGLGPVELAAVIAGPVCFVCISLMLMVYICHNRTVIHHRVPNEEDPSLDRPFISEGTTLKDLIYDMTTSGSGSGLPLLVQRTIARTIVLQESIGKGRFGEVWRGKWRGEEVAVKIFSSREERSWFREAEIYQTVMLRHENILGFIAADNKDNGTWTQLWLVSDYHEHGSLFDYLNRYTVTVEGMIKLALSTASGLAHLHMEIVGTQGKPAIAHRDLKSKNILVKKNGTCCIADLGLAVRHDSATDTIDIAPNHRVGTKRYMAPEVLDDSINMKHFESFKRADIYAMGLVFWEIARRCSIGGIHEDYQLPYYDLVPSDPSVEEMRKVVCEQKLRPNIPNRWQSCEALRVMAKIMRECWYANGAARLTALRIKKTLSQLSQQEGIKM
Summary of the method: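 Dose range 10 μM–25 pM; enzyme + compound 60 min RT; ATP added (5× stock 125 μM, 2 mM DTT); 60 min 37 °C; stop with EDTA + Eu anti-phospho-Topo IIα Thr1342 Ab; TR-FRET ex 320/340, em 665 nm. 4-param pIC50 → pKi (Cheng-Prusoff).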

[2] = tested on: TGF-β-stimulated SMAD3 phosphorylation in BEAS-2B cells; assay: Cellular ALK5 potency assay, inhibition of TGF-β stimulated pSMAD3 formation in BEAS-2B cells; format: cell-based; settings: Homo sapiens; inhibition of TGF-β stimulated pSMAD3 formation, BEAS-2B cells; read-out: BEAS2B pIC50 (converted)
Summary of the method: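 Potency is reported as pIC50, derived from concentration-dependent reduction of pSMAD3 AlphaLISA signal against TGF-β-stimulated cells without compound. BEAS-2B cells received compound for 1 h before a 30-min stimulation with 10 ng/mL TGF-β.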

SMILES | Ki [1] [nM] | IC50 [2] [nM]
Cc1cccc(-c2[nH]nnc2-c2ccc3ncc(N4CCNCC4)cc3c2)n1 [Compound 409, 6-[5-(6-methyl-2-pyridyl)-1H-triazol-4-yl]-3-piperazin-1-yl-quinoline] | 0.0398 to 0.316 | 25.1 to 158
Cc1cccc(-c2[nH]cnc2-c2ccc3ncc(C4=CCNC4)cc3n2)n1 [Compound 410, 7-(2,5-dihydro-1H-pyrrol-3-yl)-2-[5-(6-methyl-2-pyridyl)-1H-imidazol-4-yl]-1,5-naphthyridine] | 0.0398 to 0.316 | 25.1 to 158
Cc1cccc(-c2nnn(Cc3ccccc3)c2-c2ccc3ncc(N4CCCNCC4)cc3c2)n1 [Compound 411, 6-[3-benzyl-5-(6-methyl-2-pyridyl)triazol-4-yl]-3-(1,4-diazepan-1-yl)quinoline] | 0.0398 to 0.316 | 25.1 to 158
Cc1cccc(-c2[nH]cnc2-c2ccc3ncc(N4CCNCC4)cc3c2)n1 [Compound 412, 6-[5-(6-methyl-2-pyridyl)-1H-imidazol-4-yl]-3-piperazin-1-yl-quinoline] | 0.0398 to 0.316 | < 20
Cc1nc(-c2[nH]cnc2-c2ccc3ncc(-c4cnn(C5CCCNC5)c4)cc3n2)ccc1F (stereo not shown) [Compound 413, 2-[5-(5-fluoro-6-methyl-2-pyridyl)-1H-imidazol-4-yl]-7-[1-(3-piperidyl)pyrazol-4-yl]-1,5-naphthyridine] | 0.0398 to 0.316 | 25.1 to 158
Cc1cccc(-c2[nH]cnc2-c2ccc3ncc(-c4cn5c(n4)CNCC5)cc3n2)n1 [Compound 414, 2-(5-(6-methylpyridin-2-yl)-1H-imidazol-4-yl)-7-(5,6,7,8-tetrahydroimidazo[1,2-a]pyrazin-2-yl)-1,5-naphthyridine] | 0.0398 to 0.316 | 25.1 to 158
Cc1cccc(-c2nc3ccccn3c2-c2ccc3ncc(-c4nc5n(n4)CCNC5)cc3n2)n1 [Compound 415, 2-[2-(6-methyl-2-pyridyl)imidazo[1,2-a]pyridin-3-yl]-7-(5,6,7,8-tetrahydro-[1,2,4]triazolo[1,5-a]pyrazin-2-yl)-1,5-naphthyridine] | 0.0398 to 0.316 | < 20
Cc1cccc(-c2n[nH]cc2-c2ccc3ncc(-c4cncnc4)cc3n2)n1 [Compound 416, 2-[3-(6-methyl-2-pyridyl)-1H-pyrazol-4-yl]-7-pyrimidin-5-yl-1,5-naphthyridine] | 0.0398 to 0.316 | < 20
Cc1cccc(-c2n[nH]cc2-c2ccc3ncc(C4=CCC(NC(C)C)CC4)cc3n2)n1 (stereo not shown) [Compound 417, N-isopropyl-4-[6-[3-(6-methyl-2-pyridyl)-1H-pyrazol-4-yl]-1,5-naphthyridin-3-yl]cyclohex-3-en-1-amine] | < 0.0316 | 25.1 to 158
Cc1cccc(-c2[nH]cnc2-c2ccc3ncc(C4=CC[C@H](NC(=O)[C@@H]5CCCN5)CC4)cc3c2)n1 [Compound 418, (2S)—N-[(1R)-4-[6-[5-(6-methyl-2-pyridyl)-1H-imidazol-4-yl]-3-quinolyl]cyclohex-3-en-1-yl]pyrrolidine-2-carboxamide] | 0.0398 to 0.316 | 25.1 to 158
Cc1cccc(-c2[nH]ncc2-c2ccc3ncc(C(=O)OCC4CNC4)cc3n2)n1 [Compound 419, azetidin-3-ylmethyl 6-[5-(6-methyl-2-pyridyl)-1H-pyrazol-4-yl]-1,5-naphthyridine-3-carboxylate] | 0.0398 to 0.316 | 25.1 to 158
COc1ccc(-c2cnc3ccc(-c4c[nH]nc4-c4cccc(C)n4)nc3c2)cn1 [Compound 420, 7-(6-methoxy-3-pyridyl)-2-[3-(6-methyl-2-pyridyl)-1H-pyrazol-4-yl]-1,5-naphthyridine] | < 0.0316 | < 20
Cc1cccc(-c2[nH]ncc2-c2ccc3ncc(C(=O)O[C@@H]4CCN(C)C4)cc3n2)n1 [Compound 421, [(3R)-1-methylpyrrolidin-3-yl] 6-[5-(6-methyl-2-pyridyl)-1H-pyrazol-4-yl]-1,5-naphthyridine-3-carboxylate] | 0.398 to 3.16 | 25.1 to 158
Cc1nc(-c2n[nH]cc2-c2ccc3ncc(-c4cn5c(n4)CNCC5)cc3n2)ccc1F [Compound 422, 2-[3-(5-fluoro-6-methyl-2-pyridyl)-1H-pyrazol-4-yl]-7-(5,6,7,8-tetrahydroimidazo[1,2-a]pyrazin-2-yl)-1,5-naphthyridine] | < 0.0316 | 25.1 to 158
Cc1nc(-c2[nH]cnc2-c2ccc3ncc(-c4cn[nH]c4)cc3c2)ccc1F [Compound 423, 6-[5-(5-fluoro-6-methyl-2-pyridyl)-1H-imidazol-4-yl]-3-(1H-pyrazol-4-yl)quinoline] | < 0.0316 | < 20
Cc1cccc(-c2[nH]cnc2-c2ccc3ncc(N4CCC(C(=O)OCC5CNC5)CC4)cc3c2)n1 [Compound 424, azetidin-3-ylmethyl 1-[6-[5-(6-methyl-2-pyridyl)-1H-imidazol-4-yl]-3-quinolyl]piperidine-4-carboxylate] | 0.0398 to 0.316 | 200 to 1260
Cc1nc(-c2n[nH]cc2-c2ccc3ncc(-c4nc5c([nH]4)CNCC5)cc3n2)ccc1F [Compound 425, 2-[3-(5-fluoro-6-methyl-2-pyridyl)-1H-pyrazol-4-yl]-7-(4,5,6,7-tetrahydro-3H-imidazo[4,5-c]pyridin-2-yl)-1,5-naphthyridine] | 0.0398 to 0.316 | 200 to 1260
Cc1cccc(-c2n[nH]cc2-c2ccc3ncc(-c4c(C)nn(C)c4C)cc3n2)n1 [Compound 426, 2-[3-(6-methyl-2-pyridyl)-1H-pyrazol-4-yl]-7-(1,3,5-trimethylpyrazol-4-yl)-1,5-naphthyridine] | 0.0398 to 0.316 | 25.1 to 158
Cc1cccc(-c2n[nH]cc2-c2ccc3ncc(-c4cn5c(n4)CN(CCN)CC5)cc3n2)n1 [Compound 427, 2-[2-[6-[3-(6-methyl-2-pyridyl)-1H-pyrazol-4-yl]-1,5-naphthyridin-3-yl]-6,8-dihydro-5H-imidazo[1,2-a]pyrazin-7-yl]ethanamine] | 0.0398 to 0.316 | 200 to 1260
Cc1cccc(-c2n[nH]cc2-c2ccc3ncc(NCCN4CCN(C(C)C)CC4)cc3c2)n1 [Compound 428, N-[2-(4-isopropylpiperazin-1-yl)ethyl]-6-[3-(6-methyl-2-pyridyl)-1H-pyrazol-4-yl]quinolin-3-amine] | 0.0398 to 0.316 | 25.1 to 158
Cc1cccc(-c2[nH]cnc2-c2ccc3ncc(C4=CCNC4)cc3c2)n1 [Compound 429, 3-(2,5-dihydro-1H-pyrrol-3-yl)-6-[5-(6-methyl-2-pyridyl)-1H-imidazol-4-yl]quinoline] | 0.0398 to 0.316 | < 20
Cc1cccc(-c2[nH]cnc2-c2ccc3ncc(-c4cn[nH]c4)cc3c2)n1 [Compound 430, 6-[5-(6-methyl-2-pyridyl)-1H-imidazol-4-yl]-3-(1H-pyrazol-4-yl)quinoline] | < 0.0316 | < 20
Cc1cccc(-c2n[nH]cc2-c2ccc3ncc(NCC4CNC4)cc3n2)n1 [Compound 431, N-(azetidin-3-ylmethyl)-6-[3-(6-methyl-2-pyridyl)-1H-pyrazol-4-yl]-1,5-naphthyridin-3-amine] | 0.0398 to 0.316 | 1580 to 10000
Cc1cccc(-c2[nH]cnc2-c2ccc3ncc(C4=CCC(O)CC4)cc3c2)n1 (stereo not shown) [Compound 432, 4-[6-[5-(6-methyl-2-pyridyl)-1H-imidazol-4-yl]-3-quinolyl]cyclohex-3-en-1-ol] | < 0.0316 | < 20
Cc1cccc(-c2n[nH]cc2-c2ccc3ncc(N4CCC[C@@H](N(C)C)C4)cc3n2)n1 [Compound 433, (3R)-N,N-dimethyl-1-[6-[3-(6-methyl-2-pyridyl)-1H-pyrazol-4-yl]-1,5-naphthyridin-3-yl]piperidin-3-amine] | 0.0398 to 0.316 | 25.1 to 158
Cc1cccc(-c2[nH]cnc2-c2ccc3ncc(-c4cnn(C5CNC5)c4)cc3c2)n1 [Compound 434, 3-[1-(azetidin-3-yl)pyrazol-4-yl]-6-[5-(6-methyl-2-pyridyl)-1H-imidazol-4-yl]quinoline] | < 0.0316 | 25.1 to 158
Cc1cccc(-c2n[nH]cc2-c2ccc3ncc(-c4cnn(CCN)c4)cc3c2)n1 [Compound 435, 2-[4-[6-[3-(6-methyl-2-pyridyl)-1H-pyrazol-4-yl]-3-quinolyl]pyrazol-1-yl]ethanamine] | < 0.0316 | 25.1 to 158
Cc1cccc(-c2n[nH]cc2-c2ccc3ncc(-c4ccc(C)nc4C)cc3n2)n1 [Compound 436, 7-(2,6-dimethyl-3-pyridyl)-2-[3-(6-methyl-2-pyridyl)-1H-pyrazol-4-yl]-1,5-naphthyridine] | 0.0398 to 0.316 | 25.1 to 158
Cc1cccc(-c2[nH]cnc2-c2ccc3ncc(N4CCC(N)CC4)cc3c2)n1 [Compound 438, 1-[6-[5-(6-methyl-2-pyridyl)-1H-imidazol-4-yl]-3-quinolyl]piperidin-4-amine] | 0.0398 to 0.316 | 25.1 to 158

From patent US11590116B2 (THERAVANCE BIOPHARMA R&D IP, LLC, priority 2019, dated 2023)
